The assay deals with IL-1β production in PMA-differentiated THP-1 cells. Kind of assay: IL-1β production in PMA-differentiated THP-1 cells stimulated with gramicidin (hTHP-1 assay, 2% fetal bovine serum; Procedures 1-3). As to conditions: Homo sapiens, THP-1, hTHP-1 assay containing 2% fetal bovine serum, Table B2, class symbols; read-out: IC50. The assay is classed as cell-based, human. An outline of the steps:
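PMA-primed THP-1 cells (20 ng/ml PMA, 16-18 h) in RPMI with 2% FBS were pre-incubated with compounds for 1 h, from 100 μM downward in 3-fold steps (0.37% DMSO final), then stimulated with 5 μM gramicidin for 2 h. IL-1β in the supernatant was quantified by HTRF.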
For `CC(C)c1cc(S(N)(=O)=NC(=O)Nc2c3c(cc4c2CCC4)CCC3)c(F)cn1` (stereo not shown) [Example 478, 5-Fluoro-N′-((1,2,3,5,6,7-hexahydro-s-indacen-4-yl)carbamoyl)-2-isopropylpyridine-4-sulfonimidamide], the IC50 (in general, the point on the concentration scale where inhibition reaches its midpoint) is 200 to 1000 nM.
Then `CN1CCc2cc(S(N)(=O)=NC(=O)Nc3c4c(cc5c3CCC5)CCC4)sc2C1` (stereo not shown) [Example 479, N′-((1,2,3,5,6,7-hexahydro-s-indacen-4-yl)carbamoyl)-6-methyl-4,5,6,7-tetrahydrothieno[2,3-c]pyridine-2-sulfonimidamide], with 200 to 1000 nM; and `CN(C)C(CF)c1ccc(S(N)(=O)=NC(=O)Nc2c3c(cc4c2CCC4)CCC3)cc1` (stereo not shown) [Example 480, 4-(1-(Dimethylamino)-2-fluoroethyl)-N′-((1,2,3,5,6,7-hexahydro-s-indacen-4-yl)carbamoyl)benzenesulfonimidamide], with 1000 to 5000 nM; and `CNCc1cc(F)c(S(N)(=O)=NC(=O)Nc2c3c(cc4c2CCC4)CCC3)s1` (stereo not shown) [Example 481, 3-Fluoro-N′-((1,2,3,5,6,7-hexahydro-s-indacen-4-yl)carbamoyl)-5-((methylamino)methyl)thiophene-2-sulfonimidamide], with 40 to 200 nM.
Then `CC(C)(O)c1cc(C#N)cc(S(N)(=O)=NC(=O)Nc2c3c(c(C#N)c4c2CCC4)CCC3)c1` (stereo not shown) [Example 482, 3-Cyano-N′-((8-cyano-1,2,3,5,6,7-hexahydro-s-indacen-4-yl)carbamoyl)-5-(2-hydroxypropan-2-yl)benzenesulfonimidamide], with 1000 to 5000 nM; and `NS(=O)(=NC(=O)Nc1c2c(cc3c1CCC3)CCC2)c1ccc(C2CCCC2)nc1` (stereo not shown) [Example 483, 6-Cyclopentyl-N′-((1,2,3,5,6,7-hexahydro-s-indacen-4-yl)carbamoyl)pyridine-3-sulfonimidamide], with 1000 to 5000 nM; and `CN(C)C(c1ccc(S(N)(=O)=NC(=O)Nc2c3c(cc4c2CCC4)CCC3)cc1)C1CC1` (stereo not shown) [Example 484, 4-(Cyclopropyl(dimethylamino)methyl)-N′-((1,2,3,5,6,7-hexahydro-s-indacen-4-yl)carbamoyl)benzenesulfonimidamide], with 200 to 1000 nM.
Then `NS(=O)(=NC(=O)Nc1c2c(cc3c1CCC3)CCC2)c1ccc(C(F)F)nc1` (stereo not shown) [Example 485, 6-(Difluoromethyl)-N′-((1,2,3,5,6,7-hexahydro-s-indacen-4-yl)carbamoyl)pyridine-3-sulfonimidamide], with 1000 to 5000 nM.
With `CNC(C)(C)c1ccc(S(N)(=O)=NC(=O)Nc2c3c(cc4c2CCC4)CCC3)cc1` (stereo not shown) [Example 486, N′-((1,2,3,5,6,7-hexahydro-s-indacen-4-yl)carbamoyl)-4-(2-(methylamino)propan-2-yl) benzenesulfonimidamide], the IC50 fell in the range of 1000 to 5000 nM.
Then `CN(Cc1ccc(S(N)(=O)=NC(=O)Nc2c3c(cc4c2CCC4)CCC3)cc1)CC(F)(F)F` (stereo not shown) [Example 487, N′-((1,2,3,5,6,7-hexahydro-s-indacen-4-yl)carbamoyl)-4-((methyl(2,2,2-trifluoroethyl)amino)methyl) benzenesulfonimidamide], with 1000 to 5000 nM; and `NS(=O)(=NC(=O)Nc1c2c(cc3c1CCC3)CCC2)c1ccccc1` (stereo not shown) [Example 488, N′-((1,2,3,5,6,7-hexahydro-s-indacen-4-yl)carbamoyl)benzenesulfonimidamide], with 5000 to 30000 nM.
The result for `CC(C)N(C)c1ccc(S(N)(=O)=NC(=O)Nc2c3c(cc4c2CCC4)CCC3)cc1` (stereo not shown) [Example 489, N′-((1,2,3,5,6,7-hexahydro-s-indacen-4-yl)carbamoyl)-4-(isopropyl(methyl)ammo) benzenesulfonimidamide] reads 5000 to 30000 nM; that for `CC(C)(O)c1cc(S(N)(=O)=NC(=O)Nc2c3c(c(C#N)c4c2CCC4)CCC3)nn1-c1ccccc1` (stereo not shown) [Example 490, N′-((8-cyano-1,2,3,5,6,7-hexahydro-s-indacen-4-yl)carbamoyl)-5-(2-hydroxypropan-2-yl)-1-phenyl-1H-pyrazole-3-sulfonamide], 200 to 1000 nM.

For the origin of these results see US20230051589A1, “COMPOUNDS AND COMPOSITIONS FOR TREATING CONDITIONS ASSOCIATED WITH NLRP ACTIVITY” (Novartis AG, priority 2018, published 2023).
